Experimental data taken from patent publication EP4335840A1, “NEW CONTRAST AGENTS FOR USE IN DIAGNOSTIC IMAGING” (priority 2022, dated 2024).

Key:
OATP1B3 = target: T1, OATP1B3 (Homo sapiens, UniProt Q9NPD5); assay: Uptake into stable transfected OATP1B3 HEK 293 cells; format: cell-based; settings: 100 µM, 40 min, relative to RC1 (Gd-EOB-DTPA)
T1 sequence (Q9NPD5 1-702): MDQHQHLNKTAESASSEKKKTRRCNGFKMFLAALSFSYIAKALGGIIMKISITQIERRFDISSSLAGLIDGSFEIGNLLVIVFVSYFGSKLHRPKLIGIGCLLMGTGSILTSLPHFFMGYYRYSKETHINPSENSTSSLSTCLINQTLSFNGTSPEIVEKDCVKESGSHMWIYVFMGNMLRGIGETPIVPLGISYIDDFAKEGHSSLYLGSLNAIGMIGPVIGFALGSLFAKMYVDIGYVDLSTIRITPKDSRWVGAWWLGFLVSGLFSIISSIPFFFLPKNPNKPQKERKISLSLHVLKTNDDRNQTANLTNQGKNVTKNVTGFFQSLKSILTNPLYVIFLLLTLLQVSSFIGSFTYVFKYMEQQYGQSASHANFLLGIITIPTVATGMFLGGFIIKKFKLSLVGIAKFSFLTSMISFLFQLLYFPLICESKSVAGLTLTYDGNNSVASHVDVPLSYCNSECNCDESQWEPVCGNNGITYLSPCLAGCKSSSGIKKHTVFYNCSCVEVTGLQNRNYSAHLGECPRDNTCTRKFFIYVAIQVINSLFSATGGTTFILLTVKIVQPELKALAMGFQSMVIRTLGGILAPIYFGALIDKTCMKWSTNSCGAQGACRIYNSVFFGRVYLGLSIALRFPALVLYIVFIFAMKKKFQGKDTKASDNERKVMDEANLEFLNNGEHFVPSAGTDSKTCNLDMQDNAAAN
Procedure: Human transfected OATP1B3 human embryonic kidney 293 cells (OATP1B3 HEK 293, SLCO1B3, Entrez Gene ID: 28234) were used (Leonhardt M et al. Drug Metab Dispos. 2010 Jul;38(7):1024-8). The following culture medium was used: 500 mL DMEM (Dulbecco's Modified Eagle Medium - high Glucose, D6429), 50 mL FCS (fetal bovine serum, Fa. Sigma, F7524), 5.8 mL G418 (Geneticin, Fa. Gibco 10131-027) and 5 mL Pen-Strep. (Penicillin-Streptomycin, Fa. Gibco, Ref 15140-122). Cryopreserved cells were shortly thawed in water bath and diluted in 10 mL warm culture medium (37°C). After medium change the cells were grown for 3d in a 25 cm^2 cell culture flask. After 3 to 5d the cells were transferred into 75 cm^2 flasks. For the splitting of cells these were incubated with 1.5 mL trypsin (Trypsin-EDTA (1x) 0,05%, Ref 25300-054 100ml, Fa. Gibco) for 3-5 min in the incubator (37°C, 5% CO2 and […]). After centrifugation and washing with medium the cells were counted (50 µL cell suspension and 50 µL trypan blue (Trypan Blue Solution, 93595-50ml, Fa. Fluka). Cells were cultured (1×10^5 cells/well) in poly-D-lysine coated 24-well plates (Fa. Corning, Ref: 354414) in 1.5 mL medium per well. After 48 hours in the incubator the medium was changed and 1.5 mL/well sodium butyrate containing medium were added (40 mL culture medium plus 400 µL Na-Butyrate, Fa. Sigma Aldrich B5887-5G, 250 mg in 2.27 mL MilliQ water). After 24 hours in the incubator the medium was vacuumed off and 1.5 mL transport buffer was added and incubated for 10 min. The transport buffer contains the following ingredients: 500 mL HBSS (Hank's balanced salt solution, Hyclone, SH30268.01), 5 mL HEPES buffer (4-(2-hydroxyethyl)-1-piperazine-ethanesulfonic acid, Gibco 15630-056) and 3.9 mL glucose (Sigma, G8270-100, 90 g/200mL MilliQ water). All test items were prepared in transport buffer at a final concentration of 100 µM from stock solutions (180 to 500 mM concentration). The OATP1B3 HEK 293 cells were incubated with test solutions (test item in transport buffer 500 µL) for 40min on a thermoshaker without shaking (PHMP, Fa. Grant Bio). Triplicates were performed for each test item. After incubation the cells were washed with 2 mL of cold PBS (+) buffer (Dulbeccos PBS +, Fa. Gibco). […] As a reference standard Gd-EOB-DTPA (gadoxetate) is used in the same well plate. The OATP1B3 HEK 293 uptake of the test compound is calculated relative to gadoxetate (resulting in the unit % of RC1).

OATP1B1 = target: T2, OATP1B1 (Homo sapiens, UniProt Q9Y6L6); assay: Uptake into stable transfected OATP1B1 HEK 293 cells; format: cell-based; settings: OATP1B1-HEK 293 cell uptake with Rifampicine
T2 sequence (Q9Y6L6 1-691): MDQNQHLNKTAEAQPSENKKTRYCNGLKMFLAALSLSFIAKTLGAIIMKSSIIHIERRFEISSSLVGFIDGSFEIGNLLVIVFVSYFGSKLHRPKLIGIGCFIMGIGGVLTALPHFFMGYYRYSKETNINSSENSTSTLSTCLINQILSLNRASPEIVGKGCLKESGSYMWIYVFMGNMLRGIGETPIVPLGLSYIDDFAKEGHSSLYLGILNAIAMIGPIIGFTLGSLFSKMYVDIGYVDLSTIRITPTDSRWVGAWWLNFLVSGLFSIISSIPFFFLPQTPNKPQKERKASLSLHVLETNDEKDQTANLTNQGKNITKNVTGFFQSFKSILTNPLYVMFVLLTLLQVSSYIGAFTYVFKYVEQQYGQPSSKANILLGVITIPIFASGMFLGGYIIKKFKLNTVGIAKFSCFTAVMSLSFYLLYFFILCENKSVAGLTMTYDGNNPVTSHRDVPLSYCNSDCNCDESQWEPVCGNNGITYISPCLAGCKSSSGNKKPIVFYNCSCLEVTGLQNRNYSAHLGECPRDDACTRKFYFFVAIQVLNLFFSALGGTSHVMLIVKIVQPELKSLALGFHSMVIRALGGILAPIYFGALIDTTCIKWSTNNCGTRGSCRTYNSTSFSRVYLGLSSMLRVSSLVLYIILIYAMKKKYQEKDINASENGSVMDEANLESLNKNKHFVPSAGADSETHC

Row | Substance | Uptake into OATP1B3-HEK 293 cells (OATP1B3) | Inhibition Rifampicine (OATP1B1) [% inhibition]
1 | Gadolinium-2,2',2"-[10-(carboxymethyl)-2-(4-ethoxybenzyl)-1,4,7,10-tetraazacyclododecane-1,4,7-triyl]triacetate [Example 8] | 94 % of RC1 | 75
2 | Gadolinium-2,2',2"-[10-(carboxymethyl)-2-(4-ethoxybenzyl)-1,4,7,10-tetraazacyclododecane-1,4,7-triyl]triacetate [Example 9] | 13 % of RC1 | 23
3 | Gadolinium-2,2',2"-[(2S)-2-(4-butoxybenzyl)-10-(carboxymethyl)-1,4,7,10-tetraaza cyclododecane-1,4,7-triyl]triacetate [Example 12] | 66 % of RC1 | 81
4 | Gadolinium-2,2',2"-[(2S)-2-(4-butoxybenzyl)-10-(carboxymethyl)-1,4,7,10-tetraaza cyclododecane-1,4,7-triyl]triacetate [Example 13] | 383 % of RC1 | 88
5 | Gadolinium-2,2',2"-[(2S)-10-(carboxymethyl)-2-(4-ethoxybenzyl)-1,4,7,10-tetraazacyclododecane-1,4,7-triyl]triacetate [Example 10] | 80 % of RC1 | 73
6 | Gadolinium-2,2',2"-[(2S)-10-(carboxymethyl)-2-(4-ethoxybenzyl)-1,4,7,10-tetraazacyclododecane-1,4,7-triyl]triacetate [Example 11] | 32 % of RC1 | 64
